Experimental findings from article PMC6019134, “1,2,6-Thiadiazinones as Novel Narrow Spectrum Calcium/Calmodulin-Dependent Protein Kinase Kinase 2 (CaMKK2) Inhibitors” (Molecules : A Journal of Synthetic Chemistry and Natural …, 2018) are described below.

Holding throughout (assay): DSF thermal shift, kinase panel
Holding throughout (type): binding
What all share (details): 10 μM compound

One assay addresses T1, CDC42BPA (Homo sapiens, UniProt Q5VT25).
T1 construct: purchased in-house (home-made panel, SGC-style construct names)
The procedure:
(§1) The corresponding dianilino-TDZs (1–5) were tested on a panel of 46 protein kinases representing the major kinome branches at a concentration of 10 μM using a Differential Scanning Fluorimetry (DSF). Only analogues 1–3 induced a significant (>2 °C) thermal shift when incubated with a subset of the proteins (Table 1).
(§2) Kinase selectivity assay—A home-made kinase panel was generated for the following enzymes: AAK1, BMP2K, BMX, BRAF, CAMK1D, CAMK1G, CAMKK1, CAMKK2B, CDC42BPA, CDK2, CDKL1, CHEK2, CLK1, CSNK1G1, CSNK1G3, CSNK2A1, DYRK1A, DYRK2A, EPHA2, GAK, GSG2, MAPK1, MAP2K7, MAPK14B, MAPK3, PHKG2, PIM1, PLK1, PKMYT1, PRPF4B, RPS6KA1A, RPS6KA5A, RPS6KA6A, SLK, SRPK1, SRPK2, STK3, STK6, STK10, STK17A, STK24, STK38L, TRIB2, TTK, VRK1 and VRK2. Proteins were produced in E. coli, purified in a Ni-chelate column, followed by overnight digestion using TEV protease (made in house with an N-terminal 6xHis tag) and dialysis to remove imidazole. To clear samples of uncleaved proteins and the TEV protease, samples were loaded on new Ni-chelate columns. The flow through was collected, concentrated and loaded to a HiLoad Superdex 200 16/600 column (GE Healthcare, Chicago, IL, USA) for final polishing and buffer exchange.
(§3) Starting from 100 µM protein stocks, our kinase panel enzymes were diluted to 1 µM in buffer 100 mM K2HPO4 pH 7.5 containing 150 mM NaCl, 10% glycerol and 5X dye (Applied Biosystems catalogue 4461806). The protein/dye mixture was transferred to a 384-well PCR microplate having 20 µL per well. Compounds in DMSO at 10 mM concentration were added in 20 nL volume, using a liquid handling device setup with a pin head, to make 10 µM compound concentration in the assay plate.
(§4) Protein thermal shift data was measured in a qPCR instrument (Applied Biosystems QuantStudio 6) programmed to equilibrate the plate at 25 °C for 5 min followed by ramping the temperature to 95 °C at a rate of 0.05 °C/s. Data was processed using Protein Thermal shift software (Applied Biosystems) by fitting experimental curves to a Boltzmann function to calculate differential thermal shifts (dTm) referenced to protein/dye in 0.2% DMSO.

Another assay addresses T2, CSNK1G1 (Homo sapiens, UniProt Q9HCP0).
T2 construct: purchased in-house (home-made panel, SGC-style construct names)
The procedure:
as §1, §2, §3, §4

The target of another assay is T3, STK3 (Homo sapiens, UniProt Q13188).
T3 construct: purchased in-house (home-made panel, SGC-style construct names)
T3 sequence (Q13188 1-491): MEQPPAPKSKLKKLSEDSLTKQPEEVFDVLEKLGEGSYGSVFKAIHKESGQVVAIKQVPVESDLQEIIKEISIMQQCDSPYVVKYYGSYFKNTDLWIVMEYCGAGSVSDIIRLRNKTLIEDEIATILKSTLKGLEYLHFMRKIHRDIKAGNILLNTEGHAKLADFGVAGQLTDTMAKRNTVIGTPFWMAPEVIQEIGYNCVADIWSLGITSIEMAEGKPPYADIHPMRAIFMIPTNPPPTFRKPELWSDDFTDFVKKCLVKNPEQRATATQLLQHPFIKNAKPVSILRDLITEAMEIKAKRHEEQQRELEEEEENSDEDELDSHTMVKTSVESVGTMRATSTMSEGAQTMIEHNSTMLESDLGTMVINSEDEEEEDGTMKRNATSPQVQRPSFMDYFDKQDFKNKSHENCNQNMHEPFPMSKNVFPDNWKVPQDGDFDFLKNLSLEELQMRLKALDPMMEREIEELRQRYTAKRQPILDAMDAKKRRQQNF
The procedure: as §1, §2, §3, §4

The next assay deals with T4, SLKA (Homo sapiens, UniProt Q9H2G2).
T4 construct: purchased in-house (home-made panel, SGC-style construct names)
The procedure: as §1, §2, §3, §4

The target in a further assay is T5, STK10A (Homo sapiens, UniProt O94804).
T5 construct: TEV-cleavable (cleaved yes); made in house; host or cells: E. coli
The procedure: as §1, §2, §3, §4

A further assay concerns the target T6, BMP2K (Homo sapiens, UniProt Q9NSY1).
T6 construct: purchased in-house (home-made panel, SGC-style construct names)
The procedure:
as §1, §2, §3, §4

The target of another assay is T7, AAK1 (Homo sapiens, UniProt Q2M2I8).
T7 construct: purchased in-house (home-made panel, SGC-style construct names)
The procedure: as §1, §2, §3, §4

The target in the next assay is T8, CLK1 (Homo sapiens, UniProt P49759).
T8 construct: purchased in-house (home-made panel, SGC-style construct names)
The procedure: as §1, §2, §3, §4

For a further assay, the target named is T9, CDK2 (Homo sapiens, UniProt P24941).
T9 construct: purchased in-house (home-made panel, SGC-style construct names)
The procedure: as §1, §2, §3, §4

In another assay the target is T10, CAMK1D (Homo sapiens, UniProt Q8IU85).
T10 construct: purchased in-house (home-made panel, SGC-style construct names)
The procedure:
as §1, §2, §3, §4

A further assay addresses T11, RPS6KA5A (Homo sapiens, UniProt O75582).
T11 construct: purchased in-house (home-made panel, SGC-style construct names)
The procedure: as §1, §2, §3, §4

The target of a further assay is T12, STK38LA (Homo sapiens, UniProt Q9Y2H1).
T12 construct: TEV-cleavable (cleaved yes); made in house; host or cells: E. coli
The procedure:
as §1, §2, §3, §4

In another assay the target is T13, CSNK1G3 (Homo sapiens, UniProt Q9Y6M4).
T13 construct: purchased in-house (home-made panel, SGC-style construct names)
The procedure: as §1, §2, §3, §4

T1 sequence (Q5VT25 whole entry): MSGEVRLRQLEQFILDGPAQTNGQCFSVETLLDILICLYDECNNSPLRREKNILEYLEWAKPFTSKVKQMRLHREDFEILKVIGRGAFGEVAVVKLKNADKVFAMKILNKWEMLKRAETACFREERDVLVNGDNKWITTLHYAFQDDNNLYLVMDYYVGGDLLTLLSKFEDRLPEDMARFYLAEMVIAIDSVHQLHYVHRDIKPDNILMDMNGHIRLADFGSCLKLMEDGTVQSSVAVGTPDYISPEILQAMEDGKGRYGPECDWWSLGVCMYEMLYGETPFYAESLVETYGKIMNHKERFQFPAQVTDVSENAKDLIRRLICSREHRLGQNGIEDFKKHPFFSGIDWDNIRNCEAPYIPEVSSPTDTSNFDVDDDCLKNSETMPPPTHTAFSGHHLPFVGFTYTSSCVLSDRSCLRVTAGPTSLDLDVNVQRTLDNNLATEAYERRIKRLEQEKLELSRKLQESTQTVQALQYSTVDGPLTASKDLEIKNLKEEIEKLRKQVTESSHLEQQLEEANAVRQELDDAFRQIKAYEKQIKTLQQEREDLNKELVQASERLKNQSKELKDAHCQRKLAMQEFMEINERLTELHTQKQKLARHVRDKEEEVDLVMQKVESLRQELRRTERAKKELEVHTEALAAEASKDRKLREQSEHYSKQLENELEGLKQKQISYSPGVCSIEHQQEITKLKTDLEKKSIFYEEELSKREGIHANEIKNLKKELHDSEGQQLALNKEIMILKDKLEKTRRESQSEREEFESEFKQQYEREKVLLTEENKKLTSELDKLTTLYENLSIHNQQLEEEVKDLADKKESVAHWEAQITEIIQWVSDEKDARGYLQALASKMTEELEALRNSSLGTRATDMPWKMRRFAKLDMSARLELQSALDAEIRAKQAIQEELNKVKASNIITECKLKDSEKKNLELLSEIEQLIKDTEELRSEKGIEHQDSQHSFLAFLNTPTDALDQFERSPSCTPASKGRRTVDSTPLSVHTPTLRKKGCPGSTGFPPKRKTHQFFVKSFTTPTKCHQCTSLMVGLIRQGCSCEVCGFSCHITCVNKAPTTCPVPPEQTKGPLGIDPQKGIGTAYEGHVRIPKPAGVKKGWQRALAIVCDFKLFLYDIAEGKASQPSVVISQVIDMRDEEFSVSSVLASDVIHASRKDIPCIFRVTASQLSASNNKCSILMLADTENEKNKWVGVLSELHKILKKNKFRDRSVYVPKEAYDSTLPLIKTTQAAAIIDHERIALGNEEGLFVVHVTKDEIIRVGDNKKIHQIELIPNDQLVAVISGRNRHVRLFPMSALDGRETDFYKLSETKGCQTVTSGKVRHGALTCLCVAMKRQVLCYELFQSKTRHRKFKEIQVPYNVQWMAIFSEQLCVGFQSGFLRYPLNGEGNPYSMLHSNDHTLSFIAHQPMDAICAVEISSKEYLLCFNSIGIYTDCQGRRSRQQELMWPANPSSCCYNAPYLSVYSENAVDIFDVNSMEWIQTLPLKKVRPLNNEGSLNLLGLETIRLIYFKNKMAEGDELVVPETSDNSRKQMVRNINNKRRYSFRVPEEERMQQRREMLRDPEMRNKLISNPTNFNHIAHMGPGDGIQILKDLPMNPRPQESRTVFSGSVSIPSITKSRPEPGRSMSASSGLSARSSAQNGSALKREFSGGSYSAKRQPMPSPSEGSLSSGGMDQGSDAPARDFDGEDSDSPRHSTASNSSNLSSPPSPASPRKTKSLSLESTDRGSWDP
T8 sequence (P49759 whole entry): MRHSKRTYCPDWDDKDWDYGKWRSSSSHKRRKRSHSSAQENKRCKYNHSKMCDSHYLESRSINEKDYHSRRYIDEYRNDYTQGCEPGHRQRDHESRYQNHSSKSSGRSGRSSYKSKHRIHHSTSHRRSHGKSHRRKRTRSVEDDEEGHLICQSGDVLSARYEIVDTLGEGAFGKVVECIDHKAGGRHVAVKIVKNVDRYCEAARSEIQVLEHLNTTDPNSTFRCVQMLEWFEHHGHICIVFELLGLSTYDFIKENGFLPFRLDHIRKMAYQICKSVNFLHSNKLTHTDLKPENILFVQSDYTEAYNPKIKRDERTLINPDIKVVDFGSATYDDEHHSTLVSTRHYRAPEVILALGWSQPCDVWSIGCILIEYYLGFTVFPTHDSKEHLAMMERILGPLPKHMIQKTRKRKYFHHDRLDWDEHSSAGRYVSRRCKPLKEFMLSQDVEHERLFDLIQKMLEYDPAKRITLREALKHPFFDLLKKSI
T11 sequence (O75582 whole entry): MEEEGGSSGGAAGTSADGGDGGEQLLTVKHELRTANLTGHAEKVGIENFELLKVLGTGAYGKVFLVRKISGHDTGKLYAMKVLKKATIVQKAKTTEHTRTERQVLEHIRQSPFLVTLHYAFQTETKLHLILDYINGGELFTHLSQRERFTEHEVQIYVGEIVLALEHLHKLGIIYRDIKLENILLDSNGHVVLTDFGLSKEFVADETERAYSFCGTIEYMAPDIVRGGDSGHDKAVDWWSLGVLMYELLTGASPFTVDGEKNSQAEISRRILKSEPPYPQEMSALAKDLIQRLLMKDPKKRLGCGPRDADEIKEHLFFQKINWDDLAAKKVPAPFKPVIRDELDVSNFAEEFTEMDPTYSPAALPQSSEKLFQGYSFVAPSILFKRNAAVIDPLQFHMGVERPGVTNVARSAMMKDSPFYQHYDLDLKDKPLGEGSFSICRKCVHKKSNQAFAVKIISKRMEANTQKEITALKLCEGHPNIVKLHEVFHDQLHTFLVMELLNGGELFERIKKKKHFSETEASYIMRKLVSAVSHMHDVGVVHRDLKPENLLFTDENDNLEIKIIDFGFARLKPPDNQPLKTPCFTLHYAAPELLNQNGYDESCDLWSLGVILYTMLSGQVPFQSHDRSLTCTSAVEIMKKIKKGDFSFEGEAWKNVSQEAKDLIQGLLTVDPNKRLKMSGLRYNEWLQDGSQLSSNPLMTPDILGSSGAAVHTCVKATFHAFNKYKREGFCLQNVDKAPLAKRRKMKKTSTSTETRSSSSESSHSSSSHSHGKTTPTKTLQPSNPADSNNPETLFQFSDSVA
T13 sequence (Q9Y6M4 whole entry): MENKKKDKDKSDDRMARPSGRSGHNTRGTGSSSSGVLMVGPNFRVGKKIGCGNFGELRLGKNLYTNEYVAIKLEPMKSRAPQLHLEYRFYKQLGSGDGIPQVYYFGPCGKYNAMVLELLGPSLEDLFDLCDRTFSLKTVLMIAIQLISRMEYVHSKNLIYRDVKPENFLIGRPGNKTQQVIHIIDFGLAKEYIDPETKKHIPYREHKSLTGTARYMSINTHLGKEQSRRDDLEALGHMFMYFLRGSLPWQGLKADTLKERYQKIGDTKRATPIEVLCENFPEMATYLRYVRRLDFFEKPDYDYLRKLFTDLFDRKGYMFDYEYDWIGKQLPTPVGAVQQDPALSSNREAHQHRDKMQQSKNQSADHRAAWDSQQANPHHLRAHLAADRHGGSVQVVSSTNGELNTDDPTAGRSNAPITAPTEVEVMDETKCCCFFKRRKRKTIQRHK
T6 sequence (Q9NSY1 whole entry): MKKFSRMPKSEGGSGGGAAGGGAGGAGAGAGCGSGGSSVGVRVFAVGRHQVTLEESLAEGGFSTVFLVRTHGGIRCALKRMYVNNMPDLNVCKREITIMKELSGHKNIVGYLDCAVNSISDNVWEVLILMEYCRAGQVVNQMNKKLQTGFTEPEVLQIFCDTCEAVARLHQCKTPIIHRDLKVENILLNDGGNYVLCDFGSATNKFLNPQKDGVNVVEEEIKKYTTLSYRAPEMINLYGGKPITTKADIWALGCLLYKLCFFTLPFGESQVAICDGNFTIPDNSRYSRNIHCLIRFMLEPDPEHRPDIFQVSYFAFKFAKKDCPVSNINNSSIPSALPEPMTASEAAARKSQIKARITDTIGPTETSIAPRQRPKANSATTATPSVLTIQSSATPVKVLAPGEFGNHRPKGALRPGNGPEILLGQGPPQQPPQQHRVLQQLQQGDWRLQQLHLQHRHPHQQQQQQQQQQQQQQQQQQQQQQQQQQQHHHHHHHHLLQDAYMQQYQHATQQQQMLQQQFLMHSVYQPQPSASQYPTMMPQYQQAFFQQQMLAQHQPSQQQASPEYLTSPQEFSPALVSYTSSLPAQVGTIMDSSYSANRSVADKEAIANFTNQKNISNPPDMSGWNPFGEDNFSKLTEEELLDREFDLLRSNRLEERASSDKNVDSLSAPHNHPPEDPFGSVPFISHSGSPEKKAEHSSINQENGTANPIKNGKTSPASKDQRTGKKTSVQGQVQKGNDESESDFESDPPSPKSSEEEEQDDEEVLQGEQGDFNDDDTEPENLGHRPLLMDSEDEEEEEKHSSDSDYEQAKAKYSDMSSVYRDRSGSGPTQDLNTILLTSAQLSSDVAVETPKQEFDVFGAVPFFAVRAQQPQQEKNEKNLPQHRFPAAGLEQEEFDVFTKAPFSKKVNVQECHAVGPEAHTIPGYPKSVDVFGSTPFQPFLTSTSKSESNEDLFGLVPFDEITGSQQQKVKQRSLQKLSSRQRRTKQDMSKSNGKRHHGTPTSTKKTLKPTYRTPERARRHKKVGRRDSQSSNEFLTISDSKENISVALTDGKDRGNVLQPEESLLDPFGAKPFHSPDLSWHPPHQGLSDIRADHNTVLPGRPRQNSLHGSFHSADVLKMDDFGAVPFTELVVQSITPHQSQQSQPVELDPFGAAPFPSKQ
T12 sequence (Q9Y2H1 whole entry): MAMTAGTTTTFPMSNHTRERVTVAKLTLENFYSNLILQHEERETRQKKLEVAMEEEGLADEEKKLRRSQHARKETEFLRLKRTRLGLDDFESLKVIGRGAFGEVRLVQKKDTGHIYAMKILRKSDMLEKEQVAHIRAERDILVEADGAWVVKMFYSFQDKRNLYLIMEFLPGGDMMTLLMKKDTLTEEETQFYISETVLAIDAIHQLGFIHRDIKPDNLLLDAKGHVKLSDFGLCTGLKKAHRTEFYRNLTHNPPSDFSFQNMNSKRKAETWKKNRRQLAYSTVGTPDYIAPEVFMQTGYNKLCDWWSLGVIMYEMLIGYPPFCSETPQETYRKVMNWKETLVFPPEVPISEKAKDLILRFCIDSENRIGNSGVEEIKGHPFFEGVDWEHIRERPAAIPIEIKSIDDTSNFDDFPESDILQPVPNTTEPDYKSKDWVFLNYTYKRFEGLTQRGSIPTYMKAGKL

In the case of `Cc1ccc(Nc2nsnc(Nc3cccc(C(N)=O)c3)c2=O)cc1O` [Compound 1, 3-({5-[(3-Hydroxy-4-methylphenyl)amino]-4-oxo-4H-1,2,6-thiadiazin-3-yl}amino)benzamide], the ΔTm at 10 µM on CDC42BPA is 0.3 °C; at CSNK1G1, -0.6 °C; on STK3 it was 0.2 °C; at SLKA, -0.6 °C; at STK10A, 0.5 °C; on BMP2K, -0.4 °C. For the same compound, the ΔTm at 10 µM on AAK1 was 0.6 °C; at CLK1 it was 0.5 °C; at CDK2, 0.2 °C; on CAMK1D it was 0.8 °C; on RPS6KA5A it was -0.9 °C; at STK38LA it was 0.2 °C. Also, on CSNK1G3, the shift in melting temperature (ΔTm) at 10 µM was 0 °C.
For the compound `Cc1ccc(Nc2nsnc(Nc3ccc(C(N)=O)cc3)c2=O)cc1O` [Compound 2, 4-({5-[(3-Hydroxy-4-methylphenyl)amino]-4-oxo-4H-1,2,6-thiadiazin-3-yl}amino)benzamide], the ΔTm at 10 µM on CDC42BPA was 4.8 °C; at CSNK1G1 it was -1 °C; at STK3, 2.1 °C; at SLKA it was -0.1 °C; on STK10A, 0.9 °C; on BMP2K, -0.2 °C. The ΔTm at 10 µM came out at 1.5 °C at AAK1; 0.9 °C on CLK1; 2.7 °C at CDK2; 4.3 °C on CAMK1D; 1.7 °C on RPS6KA5A; 0.4 °C at STK38LA. Further, the ΔTm at 10 µM on CSNK1G3 was 0.1 °C.
Take `Cc1ccc(Nc2nsnc(Nc3ccc4c(c3)CS(=O)(=O)C4)c2=O)cc1O` [Compound 3, 3-[(2,2-Dioxido-1,3-dihydrobenzo[c]thiophen-5-yl)amino]-5-[(3-hydroxy-4-methylphenyl)amino]-4H-1,2,6-thiadiazin-4-one]: the shift in melting temperature (ΔTm) at 10 µM at CDC42BPA was 2.3 °C; at CSNK1G1 it was -0.7 °C; on STK3, 1.1 °C; on SLKA, -0.2 °C; at STK10A, 2.2 °C; on BMP2K it was 0.1 °C. Moreover, the shift in melting temperature (ΔTm) at 10 µM was 0.6 °C at AAK1; 2.1 °C at CLK1; 1.8 °C on CDK2; 1.4 °C on CAMK1D; -0.3 °C on RPS6KA5A; 0.8 °C at STK38LA. In addition, at CSNK1G3, the shift in melting temperature (ΔTm) at 10 µM was -0.2 °C.
As for `CNC(=O)c1ccccc1Nc1nsnc(Nc2cccc(CS(C)(=O)=O)c2)c1=O` [Compound 4, N-Methyl-2-([5-({3-[(methylsulfonyl)methyl]phenyl}amino)-4-oxo-4H-1,2,6-thiadiazin-3-yl]-amino}-benzamide], the shift in melting temperature (ΔTm) at 10 µM is -0.8 °C at CDC42BPA; 0.3 °C at CSNK1G1; -0.4 °C at STK3; -0.8 °C at SLKA; 0.2 °C at STK10A; -0.1 °C at BMP2K. The thermal shift (ΔTm) at 10 µM at AAK1 was -0.4 °C; on CLK1, 0 °C; at CDK2, 0.2 °C; at CAMK1D, -1.3 °C; at RPS6KA5A it was -1.2 °C; at STK38LA it was 0.4 °C. Also, the ΔTm at 10 µM at CSNK1G3 is -0.1 °C.
Consider `CNC(=O)c1ccccc1Nc1nsnc(Nc2ccc(N3CCOCC3)cc2)c1=O` [Compound 5, N-Methyl-2-({5-[(4-morpholinophenyl)amino]-4-oxo-4H-1,2,6-thiadiazin-3-yl}amino)benzamide], for which the ΔTm at 10 µM was -0.6 °C on CDC42BPA; 0 °C on CSNK1G1; -0.3 °C on STK3; -0.7 °C on SLKA; -0.4 °C on STK10A; -0.1 °C on BMP2K. Further, the ΔTm at 10 µM is -0.4 °C on AAK1; 1 °C on CLK1; -0.1 °C on CDK2; -0.9 °C at CAMK1D; -1.1 °C on RPS6KA5A; 0.3 °C at STK38LA. For the same compound, the ΔTm at 10 µM at CSNK1G3 was determined as 0 °C.
